Each structure is given as a SMILES string.

The target in assay [1] is Beta-2 adrenergic receptor (Mus musculus) (UniProt P18762). The experiment in a line: KD constant value was evaluated for the displacement of ICYP (iodocyanopindolol) binding.
Assay [2] has the same target. The experiment in a line: KD constant value was evaluated for the displacement of ICYP (iodocyanopindolol) binding in […] lymphoma cell.

Sequence of Beta-2 adrenergic receptor (Mus musculus) (P18762 whole entry, looked up): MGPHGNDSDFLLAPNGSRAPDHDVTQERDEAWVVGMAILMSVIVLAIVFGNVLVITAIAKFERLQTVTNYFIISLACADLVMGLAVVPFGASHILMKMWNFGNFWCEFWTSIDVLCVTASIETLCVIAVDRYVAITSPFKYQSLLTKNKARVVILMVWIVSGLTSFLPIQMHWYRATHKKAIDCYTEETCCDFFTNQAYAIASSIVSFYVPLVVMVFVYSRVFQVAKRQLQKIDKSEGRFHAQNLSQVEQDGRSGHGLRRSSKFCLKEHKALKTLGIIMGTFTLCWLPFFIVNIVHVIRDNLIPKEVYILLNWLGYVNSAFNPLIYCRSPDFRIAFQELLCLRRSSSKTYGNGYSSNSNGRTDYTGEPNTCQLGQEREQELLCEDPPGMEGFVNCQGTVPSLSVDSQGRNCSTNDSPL

As a reminder, the Kd is the free concentration of one partner at which half of the binding sites on the other are occupied at equilibrium, for simple one-to-one binding. A high value points to a looser complex. `Cc1ccc(C(=O)NCCCCC(C)NCC(O)c2ccc(O)c(O)c2)cc1` (stereo not drawn) yielded a Kd in assay [1] of 320 nM. Compound `Cc1ccc(NC(=O)NCCCCC(C)NCC(O)c2ccc(O)c(O)c2)cc1` (stereo not drawn) came in with a Kd in assay [2] of 470 nM. `CC(CCCCN)NCC(O)c1ccc(O)c(O)c1` (stereo not drawn) returned a Kd in assay [1] of 10000 nM.
